In ChEMBL document CHEMBL1201862, “PubChem BioAssay data set” (2004):
“And” between values parts separate entries of the source, which are not always exact repeats. Equal entries are not always repeated.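 Five compound concentrations were applied to cells in 96-well plates for 48 hours; endpoints were derived by simple linear interpolation of the resulting dose-response curve. Abbreviation: GI50, concentration required for 50% inhibition of growth.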 The source made the active and inactive calls. Rule as the data show it: active = GI50 up to about 1.1 µM and inactive = higher.

Legend:
Assay in all cases: growth of human tumour cells (NCI), 48 h
[1] = system: OVCAR-8
[2] = system: CAKI-1
[3] = system: U-251
[4] = system: MDA-MB-231
[5] = system: MOLT-4
[6] = system: KM12
[7] = system: Malme-3M
[8] = system: HCT-15
[9] = system: MDA-N
[10] = system: SF-539
[11] = system: NCI-H460
[12] = system: COLO 205
[13] = system: EKVX
[14] = system: SK-MEL-28
[15] = system: ACHN
[16] = system: M14
[17] = system: SNB-19
[18] = system: RPMI-8226
[19] = system: IGROV-1
[20] = system: PC-3
[21] = system: A498
[22] = system: HOP-92
[23] = system: TK-10
[24] = system: CCRF-CEM
[25] = system: SF-268
[26] = system: SN12C
[27] = system: MCF7
[28] = system: HOP-62
[29] = system: SF-295
[30] = system: Hs-578T
[31] = system: LOX IMVI
[32] = system: UACC-62
[33] = system: HCT-116
[34] = system: OVCAR-3
[35] = system: SK-OV-3
[36] = system: MDA-MB-435
[37] = system: HL-60
[38] = system: HCC 2998
[39] = system: OVCAR-4
[40] = system: BT-549
[41] = system: NCI-H522
[42] = system: UACC-257
[43] = system: DU-145
[44] = system: A549
[45] = system: NCI/ADR-RES
[46] = system: HT-29
[47] = system: 786-0
[48] = system: SW-620
[49] = system: OVCAR-5
[50] = system: SK-MEL-2
[51] = system: NCI-H23
[52] = system: SK-MEL-5
[53] = system: RXF 393
[54] = system: SNB-75
[55] = system: SR
[56] = system: K562
[57] = system: NCI-H226
[58] = system: UO-31

## CCC1C(C#N)=C(N)OC2=C1C(=O)CC(C)(C)C2 (stereo not drawn)
[1]
  GI50: > 100 µM (inactive)
[2]
  GI50: > 100 µM (inactive)
[3]
  GI50: > 100 µM (inactive)
[4]
  GI50: > 100 µM (inactive)
[5]
  GI50: > 100 µM (inactive)
[6]
  GI50: > 100 µM (inactive)
[7]
  GI50: > 100 µM (inactive)
[8]
  GI50: > 100 µM
[9]
  GI50: > 100 µM (inactive)
[10]
  GI50: > 100 µM (inactive)
[11]
  GI50: > 100 µM (inactive)
[12]
  GI50: > 100 µM (inactive)
[13]
  GI50: > 100 µM (inactive)
[14]
  GI50: > 100 µM (inactive)
[15]
  GI50: > 100 µM (inactive)
[16]
  GI50: > 100 µM (inactive)
[17]
  GI50: > 100 µM (inactive)
[18]
  GI50: > 100 µM (inactive)
[19]
  GI50: > 100 µM (inactive)
[20]
  GI50: > 100 µM (inactive)
[21]
  GI50: > 100 µM (inactive)
[22]
  GI50: > 100 µM (inactive)
[23]
  GI50: > 100 µM (inactive)
[24]
  GI50: > 100 µM (inactive)
[25]
  GI50: > 100 µM (inactive)
[26]
  GI50: > 100 µM (inactive)
[27]
  GI50: > 100 µM (inactive)
[28]
  GI50: > 100 µM (inactive)
[29]
  GI50: > 100 µM (inactive)
[30]
  GI50: > 100 µM (inactive)
[31]
  GI50: > 100 µM (inactive)
[32]
  GI50: > 100 µM (inactive)
[33]
  GI50: > 100 µM (inactive)
[34]
  GI50: > 100 µM (inactive)
[35]
  GI50: > 100 µM (inactive)
[36]
  GI50: > 100 µM (inactive)
[37]
  GI50: > 100 µM (inactive)
[38]
  GI50: > 100 µM (inactive)
[39]
  GI50: > 100 µM (inactive)
[40]
  GI50: > 100 µM (inactive)
[41]
  GI50: > 100 µM (inactive)
[42]
  GI50: 35.9 µM (inactive)
[43]
  GI50: > 100 µM (inactive)
[44]
  GI50: > 100 µM (inactive)
[45]
  GI50: > 100 µM (inactive)
[46]
  GI50: > 100 µM (inactive)
[47]
  GI50: > 100 µM (inactive)
[48]
  GI50: > 100 µM (inactive)
[49]
  GI50: > 100 µM (inactive)
[50]
  GI50: > 100 µM (inactive)
[51]
  GI50: > 100 µM (inactive)
[52]
  GI50: > 100 µM (inactive)

## CC(=O)OCC1OC(SC2=N/C(=C\c3ccc(Br)s3)C(=O)N2c2ccccc2)C(OC(C)=O)C(OC(C)=O)C1OC(C)=O (stereo not drawn)
[53]
  GI50: 12.1 µM (inactive) and 9.64 µM (inactive)
[4]
  GI50: 58.5 µM (inactive) and 42.9 µM (inactive)
[7]
  GI50: 50.6 µM (inactive) and 53.6 µM (inactive)
[8]
  GI50: > 100 µM and 66.8 µM
[9]
  GI50: > 100 µM (inactive) and 54.6 µM (inactive)
[11]
  GI50: 30.1 µM (inactive) and 38.1 µM (inactive)
[12]
  GI50: 41.2 µM (inactive) and 57.9 µM (inactive)
[13]
  GI50: 34.3 µM (inactive) and 30.7 µM (inactive)
[14]
  GI50: > 100 µM (inactive) and 82.8 µM (inactive)
[15]
  GI50: 32.1 µM (inactive) and 52.1 µM (inactive)
[17]
  GI50: 56.4 µM (inactive) and 37.1 µM (inactive)
[20]
  GI50: 34.1 µM (inactive) and 58.5 µM (inactive)
[21]
  GI50: 41.1 µM (inactive) and 58.7 µM (inactive)
[23]
  GI50: 40.6 µM (inactive) and 60.3 µM (inactive)
[25]
  GI50: > 100 µM (inactive) and 55.8 µM (inactive)
[26]
  GI50: 50.6 µM (inactive)
[27]
  GI50: 42 µM (inactive) and 78.9 µM (inactive)
[28]
  GI50: 55 µM (inactive) and 41.7 µM (inactive)
[29]
  GI50: 39.8 µM (inactive) and 58.1 µM (inactive)
[30]
  GI50: 48.1 µM (inactive) and 35.2 µM (inactive)
[31]
  GI50: 47.8 µM (inactive) and 64.3 µM (inactive)
[32]
  GI50: 30.6 µM (inactive) and 30.9 µM (inactive)
[38]
  GI50: 59 µM (inactive) and 36.5 µM (inactive)
[39]
  GI50: 31.8 µM (inactive) and 41.9 µM (inactive)
[40]
  GI50: 24.4 µM (inactive) and 41.6 µM (inactive)
[41]
  GI50: 21.8 µM (inactive) and 25.5 µM (inactive)
[45]
  GI50: 40.9 µM (inactive) and 43.1 µM (inactive)
[48]
  GI50: > 100 µM (inactive) and 92 µM (inactive)
[49]
  GI50: > 100 µM (inactive)
[50]
  GI50: 16.7 µM (inactive) and 32.6 µM (inactive)
[51]
  GI50: 19 µM (inactive) and 33.4 µM (inactive)
[52]
  GI50: 52.2 µM (inactive) and 42.9 µM (inactive)

## O=C(O)CCNC(=O)c1cc(N(CCBr)CCBr)c([N+](=O)[O-])cc1[N+](=O)[O-]
[1]
  GI50: > 100 µM (inactive)
[2]
  GI50: > 100 µM (inactive)
[54]
  GI50: > 100 µM (inactive)
[3]
  GI50: > 100 µM (inactive)
[55]
  GI50: > 100 µM (inactive)
[4]
  GI50: > 100 µM (inactive)
[5]
  GI50: > 100 µM (inactive)
[6]
  GI50: > 100 µM (inactive)
[7]
  GI50: > 100 µM (inactive)
[8]
  GI50: > 100 µM
[9]
  GI50: > 100 µM (inactive)
[11]
  GI50: > 100 µM (inactive)
[12]
  GI50: > 100 µM (inactive)
[13]
  GI50: > 100 µM (inactive)
[56]
  GI50: > 100 µM (inactive)
[14]
  GI50: > 100 µM (inactive)
[15]
  GI50: > 100 µM (inactive)
[16]
  GI50: > 100 µM (inactive)
[17]
  GI50: > 100 µM (inactive)
[18]
  GI50: > 100 µM (inactive)
[57]
  GI50: > 100 µM (inactive)
[19]
  GI50: > 100 µM (inactive)
[20]
  GI50: > 100 µM (inactive)
[21]
  GI50: > 100 µM (inactive)
[22]
  GI50: > 100 µM (inactive)
[23]
  GI50: > 100 µM (inactive)
[24]
  GI50: > 100 µM (inactive)
[25]
  GI50: > 100 µM (inactive)
[26]
  GI50: > 100 µM (inactive)
[27]
  GI50: > 100 µM (inactive)
[28]
  GI50: > 100 µM (inactive)
[29]
  GI50: > 100 µM (inactive)
[30]
  GI50: > 100 µM (inactive)
[31]
  GI50: > 100 µM (inactive)
[33]
  GI50: > 100 µM (inactive)
[34]
  GI50: > 100 µM (inactive)
[35]
  GI50: > 100 µM (inactive)
[36]
  GI50: > 100 µM (inactive)
[37]
  GI50: > 100 µM (inactive)
[38]
  GI50: > 100 µM (inactive)
[39]
  GI50: > 100 µM (inactive)
[40]
  GI50: > 100 µM (inactive)
[41]
  GI50: > 100 µM (inactive)
[42]
  GI50: > 100 µM (inactive)
[44]
  GI50: > 100 µM (inactive)
[45]
  GI50: > 100 µM (inactive)
[46]
  GI50: > 100 µM (inactive)
[47]
  GI50: > 100 µM (inactive)
[48]
  GI50: > 100 µM (inactive)
[58]
  GI50: > 100 µM (inactive)
[49]
  GI50: > 100 µM (inactive)
[50]
  GI50: > 100 µM (inactive)
[51]
  GI50: > 100 µM (inactive)
[52]
  GI50: > 100 µM (inactive)
